Test results from patent publication US20080139664A1, “ANTI-GLYCATION AGENTS FOR PREVENTING AGE-, DIABETES-, AND SMOKING-RELATED COMPLICATIONS” (NATIONAL RESEARCH COUNCIL OF CANADA, priority 2001, published 2008).
pIC50: −log10 of the molar value.

What was measured:
[1] = tested on: bovine serum albumin (BSA); test: Fluorescamine assay of free primary amino groups of BSA incubated with D-ribose; format: biochemical; conditions: for Unreacted amino group: free primary amino group on BSA after 5 days at 37° C., agent at 16.8 times IC50, 64% without agent
lysozyme = test: ESI-MS of lysozyme glycoforms after incubation with D-ribose; conditions: 37° C., 5 days; for Peak area as % of total area of all glycoforms, 14,569: lysozyme + 2D-ribose − 2H2O (14,569 Da); for Peak area as % of total area of all glycoforms, 14,551: lysozyme + 2D-ribose − 3H2O (14,551 Da); for Peak area as % of total area of all glycoforms, 14,533: lysozyme + 2D-ribose − 5H2O (14,533 Da); for Peak area as % of total area of all glycoforms, 14,515: lysozyme + 2D-ribose − 6H2O (14,515 Da); for Peak area as % of total area of all glycoforms, 14,419: lysozyme + D-ribose − 2H2O (14,419 Da); for Peak area as % of total area of all glycoforms, 14,401: lysozyme + D-ribose − 3H2O (14,401 Da); for Peak area as % of total area of all glycoforms, 14,437: lysozyme + D-ribose − H2O (14,437 Da); for Peak area as % of total area of all glycoforms, 14,496: lysozyme + D-ribose − H2O with one carboxymethylated Lys residue (14,496 Da); for Peak area as % of total area of all glycoforms, 14,364: lysozyme with one carboxymethylated Lys residue (14,364 Da); for Peak area as % of total area of all glycoforms, 14,305: unmodified lysozyme (14,305 Da);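 on all read-outs here: lysozyme incubated with D-ribose, with or without anti-glycation agents, then separated by reversed-phase HPLC and analysed by electrospray mass spectrometry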
[2] = tested on: bovine serum albumin (BSA); test: Maillard fluorescence-based assay of AGEs formation, IC50 determination (BSA + D-ribose); conditions: for pIC50: inhibition of Maillard fluorescence development, 0.075 mM BSA, 50 mM D-ribose, 37° C., 5 days
[3] = tested on: bovine serum albumin (BSA); test: SDS-PAGE assessment of BSA-BSA protein cross-links; format: biochemical; conditions: mixtures further incubated for 4 weeks; further: key: ++: strongly suppressed; +: suppressed; −: no suppression; *: moderate acceleration of the cross-linking
Protocol: Additionally, protein cross-links were semi-quantitatively assessed by SDS PAGE gel chromatography.
Protein-protein cross-links were characterized by SDS-PAGE. The incubation mixtures used for determination of the amino groups were further incubated for 4 weeks. An aliquot of the solution was applied to Pharmacia SDS FAST gel and the proteins were stained with Coomassie blue.

## Oc1cc(O)c2c(c1)O[C@H](c1ccc(O)c(O)c1)[C@@H](O)C2 [(+)-Catechin]
[1]
  Unreacted amino group: 66%
lysozyme
  Peak area as % of total area of all glycoforms, 14,569: 2.8%
  Peak area as % of total area of all glycoforms, 14,551: 1.4%
  Peak area as % of total area of all glycoforms, 14,533: 1.2%
  Peak area as % of total area of all glycoforms, 14,515: 0.0%
  Peak area as % of total area of all glycoforms, 14,419: 4.0%
  Peak area as % of total area of all glycoforms, 14,401: 0.0%
  Peak area as % of total area of all glycoforms, 14,437: 19.7%
  Peak area as % of total area of all glycoforms, 14,496: 0.0%
  Peak area as % of total area of all glycoforms, 14,364: 2.0%
  Peak area as % of total area of all glycoforms, 14,305: 68.9%
[2]
  pIC50: 4.72

## O=[N+]([O-])c1ccc(O)c2ncccc12 [Nitroxoline]
[1]
  Unreacted amino group: 76%
lysozyme
  Peak area as % of total area of all glycoforms, 14,569: 1.4%
  Peak area as % of total area of all glycoforms, 14,551: 2.1%
  Peak area as % of total area of all glycoforms, 14,533: 1.2%
  Peak area as % of total area of all glycoforms, 14,515: 1.2%
  Peak area as % of total area of all glycoforms, 14,419: 7.8%
  Peak area as % of total area of all glycoforms, 14,401: 3.3%
  Peak area as % of total area of all glycoforms, 14,437: 11.0%
  Peak area as % of total area of all glycoforms, 14,496: 1.0%
  Peak area as % of total area of all glycoforms, 14,364: 4.2%
  Peak area as % of total area of all glycoforms, 14,305: 66.7%
[2]
  pIC50: 3.52

## O=C1C[C@@H](c2ccc(O)c(O)c2)Oc2cc(O)cc(O)c21 [Eriodictyol]
[1]
  Unreacted amino group: 43%
lysozyme
  Peak area as % of total area of all glycoforms, 14,569: 3.1%
  Peak area as % of total area of all glycoforms, 14,551: 1.6%
  Peak area as % of total area of all glycoforms, 14,533: 1.1%
  Peak area as % of total area of all glycoforms, 14,515: 0.0%
  Peak area as % of total area of all glycoforms, 14,419: 5.0%
  Peak area as % of total area of all glycoforms, 14,401: 0.4%
  Peak area as % of total area of all glycoforms, 14,437: 20.2%
  Peak area as % of total area of all glycoforms, 14,496: 0.0%
  Peak area as % of total area of all glycoforms, 14,364: 1.9%
  Peak area as % of total area of all glycoforms, 14,305: 66.7%
[2]
  pIC50: 3.60

## O=c1c(O)cccc2cc(O)c(O)c(O)c12 [Purpurogallin]
[1]
  Unreacted amino group: 31%
lysozyme
  Peak area as % of total area of all glycoforms, 14,569: 3.6%
  Peak area as % of total area of all glycoforms, 14,551: 1.2%
  Peak area as % of total area of all glycoforms, 14,533: 0.9%
  Peak area as % of total area of all glycoforms, 14,515: 0.0%
  Peak area as % of total area of all glycoforms, 14,419: 4.1%
  Peak area as % of total area of all glycoforms, 14,401: 0.0%
  Peak area as % of total area of all glycoforms, 14,437: 22.2%
  Peak area as % of total area of all glycoforms, 14,496: 0.0%
  Peak area as % of total area of all glycoforms, 14,364: 0.0%
  Peak area as % of total area of all glycoforms, 14,305: 67.9%
[2]
  pIC50: 4.12

## O=C(O[C@@H]1Cc2c(O)cc(O)cc2O[C@@H]1c1cc(O)c(O)c(O)c1)c1cc(O)c(O)c(O)c1 [(−)-Epigallocatechin gallate]
[1]
  Unreacted amino group: 58%
lysozyme
  Peak area as % of total area of all glycoforms, 14,569: 2.9%
  Peak area as % of total area of all glycoforms, 14,551: 0.8%
  Peak area as % of total area of all glycoforms, 14,533: 1.7%
  Peak area as % of total area of all glycoforms, 14,515: 0.0%
  Peak area as % of total area of all glycoforms, 14,419: 2.6%
  Peak area as % of total area of all glycoforms, 14,401: 0.0%
  Peak area as % of total area of all glycoforms, 14,437: 20.9%
  Peak area as % of total area of all glycoforms, 14,496: 0.0%
  Peak area as % of total area of all glycoforms, 14,364: 2.0%
  Peak area as % of total area of all glycoforms, 14,305: 69.1%
[2]; Maillard fluorescence, listed if significantly lower than 100%
  maximum percentage of the inhibition: 55%)
[2]
  pIC50: 4.32

## Oc1cc(O)c2c(c1)O[C@H](c1ccc(O)c(O)c1)[C@H](O)C2 [(−)-Epicatechin]
[1]
  Unreacted amino group: 57%
lysozyme
  Peak area as % of total area of all glycoforms, 14,569: 1.7%
  Peak area as % of total area of all glycoforms, 14,551: 0.0%
  Peak area as % of total area of all glycoforms, 14,533: 0.0%
  Peak area as % of total area of all glycoforms, 14,515: 0.0%
  Peak area as % of total area of all glycoforms, 14,419: 2.6%
  Peak area as % of total area of all glycoforms, 14,401: 0.0%
  Peak area as % of total area of all glycoforms, 14,437: 17.6%
  Peak area as % of total area of all glycoforms, 14,496: 0.0%
  Peak area as % of total area of all glycoforms, 14,364: 1.8%
  Peak area as % of total area of all glycoforms, 14,305: 76.3%
[2]
  pIC50: 4.24

## CC(C)NC[C@@H](O)c1ccc(O)c(O)c1 [D-Isoproterenol]
[1]
  Unreacted amino group: 68%
[3]
  Suppression of BSA-BSA cross-links: +
lysozyme
  Peak area as % of total area of all glycoforms, 14,569: 1.4%
  Peak area as % of total area of all glycoforms, 14,551: 0.2%
  Peak area as % of total area of all glycoforms, 14,533: 0.5%
  Peak area as % of total area of all glycoforms, 14,515: 0.0%
  Peak area as % of total area of all glycoforms, 14,419: 1.8%
  Peak area as % of total area of all glycoforms, 14,401: 0.8%
  Peak area as % of total area of all glycoforms, 14,437: 13.7%
  Peak area as % of total area of all glycoforms, 14,496: 0.6%
  Peak area as % of total area of all glycoforms, 14,364: 4.7%
  Peak area as % of total area of all glycoforms, 14,305: 76.2%

## CC(C)NC[C@H](O)c1ccc(O)c(O)c1 [L-Isoproterenol]
[1]
  Unreacted amino group: 73%
[1]; in words
  effect on protection of amino groups of BSA: protect the amino group against glycation
[3]
  Suppression of BSA-BSA cross-links: +
lysozyme
  Peak area as % of total area of all glycoforms, 14,569: 2.2%
  Peak area as % of total area of all glycoforms, 14,551: 0.8%
  Peak area as % of total area of all glycoforms, 14,533: 1.0%
  Peak area as % of total area of all glycoforms, 14,515: 0.9%
  Peak area as % of total area of all glycoforms, 14,419: 2.3%
  Peak area as % of total area of all glycoforms, 14,401: 2.5%
  Peak area as % of total area of all glycoforms, 14,437: 16.5%
  Peak area as % of total area of all glycoforms, 14,496: 1.4%
  Peak area as % of total area of all glycoforms, 14,364: 5.3%
  Peak area as % of total area of all glycoforms, 14,305: 67.0%

## O=c1cc(-c2ccc(O)c(O)c2)oc2c(O)c(O)ccc12 [7,8,3′,4′-Tetrahydroxyflavone]
[1]
  Unreacted amino group: 56%
lysozyme
  Peak area as % of total area of all glycoforms, 14,569: 1.6%
  Peak area as % of total area of all glycoforms, 14,551: 0.6%
  Peak area as % of total area of all glycoforms, 14,533: 0.0%
  Peak area as % of total area of all glycoforms, 14,515: 0.0%
  Peak area as % of total area of all glycoforms, 14,419: 3.0%
  Peak area as % of total area of all glycoforms, 14,401: 0.0%
  Peak area as % of total area of all glycoforms, 14,437: 15.9%
  Peak area as % of total area of all glycoforms, 14,496: 0.8%
  Peak area as % of total area of all glycoforms, 14,364: 2.0%
  Peak area as % of total area of all glycoforms, 14,305: 76.2%
[2]
  pIC50: 3.82

## O=c1cc(-c2cc(O)c(O)c(O)c2)oc2cc(O)cc(O)c12 [5,7,3′,4′,5′-Pentahydroxyflavone]
[1]
  Unreacted amino group: 54%
lysozyme
  Peak area as % of total area of all glycoforms, 14,569: 4.3%
  Peak area as % of total area of all glycoforms, 14,551: 4.3%
  Peak area as % of total area of all glycoforms, 14,533: 1.7%
  Peak area as % of total area of all glycoforms, 14,515: 0.7%
  Peak area as % of total area of all glycoforms, 14,419: 8.6%
  Peak area as % of total area of all glycoforms, 14,401: 0.2%
  Peak area as % of total area of all glycoforms, 14,437: 20.6%
  Peak area as % of total area of all glycoforms, 14,496: 0.0%
  Peak area as % of total area of all glycoforms, 14,364: 2.2%
  Peak area as % of total area of all glycoforms, 14,305: 55.0%
[2]
  pIC50: 3.68

## Kaempferide
[1]
  Unreacted amino group: 49%
lysozyme
  Peak area as % of total area of all glycoforms, 14,569: 3.9%
  Peak area as % of total area of all glycoforms, 14,551: 4.4%
  Peak area as % of total area of all glycoforms, 14,533: 4.0%
  Peak area as % of total area of all glycoforms, 14,515: 1.6%
  Peak area as % of total area of all glycoforms, 14,419: 8.9%
  Peak area as % of total area of all glycoforms, 14,401: 5.4%
  Peak area as % of total area of all glycoforms, 14,437: 18.5%
  Peak area as % of total area of all glycoforms, 14,496: 0.0%
  Peak area as % of total area of all glycoforms, 14,364: 2.5%
  Peak area as % of total area of all glycoforms, 14,305: 46.7%
[2]
  pIC50: 3.55
